Our source for the IC50 values is patent publication US20250179032A1, “HETEROCYCLIC INHIBITORS OF GLUT9 FOR TREATMENT OF DISEASE” (HORIZON THERAPEUTICS IRELAND DAC, priority 2022, published 2025).

One assay has as its target T1, H. sapiens SLC2A9 variant 2 (GLUT9B) (Homo sapiens, UniProt Q9NRM0).
T1 sequence (Q9NRM0 1-511 isoform Q9NRM0-2): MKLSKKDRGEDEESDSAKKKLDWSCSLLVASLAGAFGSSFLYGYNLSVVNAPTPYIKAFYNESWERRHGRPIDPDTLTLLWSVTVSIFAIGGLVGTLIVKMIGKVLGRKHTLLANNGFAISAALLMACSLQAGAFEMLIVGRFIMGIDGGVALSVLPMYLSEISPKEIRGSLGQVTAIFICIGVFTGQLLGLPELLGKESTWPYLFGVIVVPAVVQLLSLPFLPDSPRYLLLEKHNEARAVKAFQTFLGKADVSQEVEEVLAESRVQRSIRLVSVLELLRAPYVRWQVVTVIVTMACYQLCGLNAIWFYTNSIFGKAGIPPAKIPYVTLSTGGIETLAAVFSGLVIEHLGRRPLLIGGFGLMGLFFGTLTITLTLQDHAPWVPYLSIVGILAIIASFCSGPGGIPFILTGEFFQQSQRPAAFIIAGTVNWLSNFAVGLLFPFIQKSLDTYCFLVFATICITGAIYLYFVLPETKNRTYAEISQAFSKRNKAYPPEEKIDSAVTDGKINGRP
The assay is described as follows: GLUT9 functional assay: uric acid uptake in HEK293T cells, allantoin formation by MS/MS as proxy of GLUT9B inhibition. Type of assay: cell-based. As to conditions: 15 minute assay; HEK293T cells stably expressing GLUT9B and transiently A. oryzae uricase; uric acid 0.3 mM, 37° C.; read-out: 15 min IC50. In short, it runs like this: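 Inhibition of GLUT9B-mediated urate uptake read as reduced allantoin formation, measured by MS/MS against allantoin standards in HEK293T matrix with log-logistic fitting. Stable GLUT9B HEK293T cells carrying transfected A. oryzae uricase were incubated 15 or 60 min at 37° C with uric acid at Km (0.3 mM), pH 7.4 gluconate buffer.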
Turning to `COC1(C(=O)O)CCN(c2nc(CCC(F)(F)F)cnc2-c2cc(F)c3occc3c2)CC1` [Compound 92, 1-(3-(7-fluorobenzofuran-5-yl)-6-(3,3,3-trifluoropropyl)pyrazin-2-yl)-4-methoxypiperidine-4-carboxylic acid], the IC50 was in the range of 500 to 2000 nM.
Turning to `N#CC1(C(=O)O)CCN(c2nc(CCC(F)(F)F)cnc2-c2cc(F)c3occc3c2)CC1` [Compound 93, 4-cyano-1-(3-(7-fluorobenzofuran-5-yl)-6-(3,3,3-trifluoropropyl)pyrazin-2-yl)piperidine-4-carboxylic acid], the IC50 is 500 to 2000 nM.
On to `O=C(O)C1C2CC1CN(c1nc(CCC(F)(F)F)cnc1-c1cc(F)c3occc3c1)C2` (stereo not shown) [Compound 94, 3-(3-(7-fluorobenzofuran-5-yl)-6-(3,3,3-trifluoropropyl)pyrazin-2-yl)-3-azabicyclo[3.1.1]heptane-6-carboxylic acid], for which the IC50 lay within 500 to 2000 nM.
As to `O=C(O)C1CC2(CCN(c3nc(CCC(F)(F)F)cnc3-c3cc(F)c4occc4c3)CC2)C1` [Compound 95, 7-(3-(7-fluorobenzofuran-5-yl)-6-(3,3,3-trifluoropropyl)pyrazin-2-yl)-7-azaspiro[3.5]nonane-2-carboxylic acid], the half-maximal inhibitory concentration (IC50) is less than 500 nM.
Take `COCCOc1ccc(-c2ncc(CCC(F)(F)F)nc2N2CCC(C(=O)O)CC2)cn1` [Compound 97, 1-(3-(6-(2-methoxyethoxy)pyridin-3-yl)-6-(3,3,3-trifluoropropyl)pyrazin-2-yl)piperidine-4-carboxylic acid]: the IC50 was greater than 2000 nM.
As to `COCCOc1ncc(-c2ncc(CCC(F)(F)F)nc2N2CCC(C(=O)O)CC2)cc1F` [Compound 98, 1-(3-(5-fluoro-6-(2-methoxyethoxy)pyridin-3-yl)-6-(3,3,3-trifluoropropyl)pyrazin-2-yl)piperidine-4-carboxylic acid], the IC50 was greater than 2000 nM.
As for `O=C(O)C1CCN(c2nc(CCC(F)(F)F)cnc2-c2ccc(OCCO)cc2)CC1` [Compound 99, 1-(3-(4-(2-hydroxyethoxy)phenyl)-6-(3,3,3-trifluoropropyl)pyrazin-2-yl)piperidine-4-carboxylic acid], the IC50 is greater than 2000 nM.
The same measure, in the same setting: for `COc1ccc(-c2ncc(CCC(F)(F)F)nc2N2CCC(OCC(=O)O)CC2)cc1` [Compound 100, 2-((1-(3-(4-methoxyphenyl)-6-(3,3,3-trifluoropropyl)pyrazin-2-yl)piperidin-4-yl)oxy)acetic acid] the value was less than 500 nM; for `O=C(O)CC1CC2(C1)CN(c1nc(CCC(F)(F)F)cnc1-c1ccc3occc3c1)C2` [Compound 101, 2-(2-(3-(benzofuran-5-yl)-6-(3,3,3-trifluoropropyl)pyrazin-2-yl)-2-azaspiro[3.3]heptan-6-yl)acetic acid], greater than 2000 nM; for `O=C(O)C1C[C@@H]2CN(c3nc(CCC(F)(F)F)cnc3-c3ccc4occc4c3)C[C@@H]2C1` (stereo partly drawn) [Compound 102, (3aR,6aS)-2-(3-(benzofuran-5-yl)-6-(3,3,3-trifluoropropyl)pyrazin-2-yl)octahydrocyclopenta[c]pyrrole-5-carboxylic acid], 500 to 2000 nM.
Regarding `COCCNc1ccc(-c2ncc(CCC(F)(F)F)nc2N2CCC(C(=O)O)CC2)cc1` [Compound 103, 1-(3-(4-((2-methoxyethyl)amino)phenyl)-6-(3,3,3-trifluoropropyl)pyrazin-2-yl)piperidine-4-carboxylic acid], the IC50 is 500 to 2000 nM.
Still for that read-out and setting: the value for `COCCN(C)c1ccc(-c2ncc(CCC(F)(F)F)nc2N2CCC(C(=O)O)CC2)cc1` [Compound 104, 1-(3-(4-((2-methoxyethyl)(methyl)amino)phenyl)-6-(3,3,3-trifluoropropyl)pyrazin-2-yl)piperidine-4-carboxylic acid] was 500 to 2000 nM; that for `O=C(O)C1CCN(c2nc(CCC(F)(F)F)cnc2-c2ccncc2)CC1` [Compound 105, 1-(3-(pyridin-4-yl)-6-(3,3,3-trifluoropropyl)pyrazin-2-yl)piperidine-4-carboxylic acid] was greater than 2000 nM; that for `CN(C)S(=O)(=O)N1CCN(c2nc(CCC(F)(F)F)cnc2-c2ccc3occc3c2)CC1` [Compound 106, 4-(3-(benzofuran-5-yl)-6-(3,3,3-trifluoropropyl)pyrazin-2-yl)-N,N-dimethylpiperazine-1-sulfonamide] was greater than 2000 nM.
Take `O=C(O)C1CCN(c2nc(CCCC(F)(F)F)cnc2-c2ccc3c(c2)CCO3)CC1` [Compound 107, 1-(3-(2,3-dihydrobenzofuran-5-yl)-6-(4,4,4-trifluorobutyl)pyrazin-2-yl)piperidine-4-carboxylic acid]: the IC50 is less than 500 nM.
Still for that read-out and setting: for `O=C(O)C1CCN(c2nc(CCCC(F)(F)F)cnc2-c2ccc3c(c2)OCO3)CC1` [Compound 108, 1-(3-(benzo[d][1,3]dioxol-5-yl)-6-(4,4,4-Trifluorobutyl)Pyrazin-2-yl)piperidine-4-carboxylic acid] the value was less than 500 nM; for `O=C(O)C1CCN(c2nc(CCCC(F)(F)F)cnc2-c2ccc3ncoc3c2)CC1` [Compound 109, 1-(3-(benzo[d]oxazol-6-yl)-6-(4,4,4-trifluorobutyl)pyrazin-2-yl)piperidine-4-carboxylic acid], 500 to 2000 nM; for `O=C(O)C1CCN(c2nc(CCCC(F)(F)F)cnc2-c2ccc3c(c2)OCCO3)CC1` [Compound 110, 1-(3-(2,3-dihydrobenzo[b][1,4]dioxin-6-yl)-6-(4,4,4-trifluorobutyl)pyrazin-2-yl)piperidine-4-carboxylic acid], 500 to 2000 nM.
The same measure, in the same setting: for `O=C(O)C1CCN(c2nc(CCCC(F)(F)F)cnc2-c2ccc(OCC3CC3)cc2)CC1` [Compound 111, 1-(3-(4-(cyclopropylmethoxy)phenyl)-6-(4,4,4-trifluorobutyl)pyrazin-2-yl)piperidine-4-carboxylic acid] the value was less than 500 nM; for `O=C(O)C1CCN(c2nc(CCCC(F)(F)F)cnc2-c2ccc3c(c2)CCCO3)CC1` [Compound 112, 1-(3-(chroman-6-yl)-6-(4,4,4-trifluorobutyl)pyrazin-2-yl)piperidine-4-carboxylic acid], 500 to 2000 nM.
On the same count and under the same terms, for `O=C(O)C1CCN(c2nc(CCCC(F)(F)F)cnc2-c2ccc(OC3CC3)cc2)CC1` [Compound 113, 1-(3-(4-cyclopropoxyphenyl)-6-(4,4,4-trifluorobutyl)pyrazin-2-yl)piperidine-4-carboxylic acid] the value was 500 to 2000 nM; for `O=C(O)C1CCN(c2nc(CCCC(F)(F)F)cnc2-c2ccc3c(c2)NCCO3)CC1` [Compound 114, 1-(3-(3,4-dihydro-2H-benzo[b][1,4]oxazin-6-y)-6-(4,4,4-trifluorobutyl)pyrazin-2-yl)piperidine-4-carboxylic acid], 500 to 2000 nM; for `O=C1COc2ccc(-c3ncc(CCCC(F)(F)F)nc3N3CCC(C(=O)O)CC3)cc2N1` [Compound 115, 1-(3-(3-oxo-3,4-dihydro-2H-benzo[b][1,4]oxazin-6-yl)-6-(4,4,4-trifluorobutyl)pyrazin-2-yl)piperidine-4-carboxylic acid], greater than 2000 nM.
Consider `O=C(O)C1CCN(c2nc(CCCC(F)(F)F)cnc2-c2cnc3occc3c2)CC1` [Compound 116, 1-(3-(furo[2,3-b]pyridin-5-yl)-6-(4,4,4-trifluorobutyl)pyrazin-2-yl)piperidine-4-carboxylic acid], for which the IC50 was less than 500 nM.
Regarding `COCCOCCOc1ccc(-c2ncc(CCCC(F)(F)F)nc2N2CCC(C(=O)O)CC2)cc1` [Compound 117, 1-(3-(4-(2-(2-methoxyethoxy)ethoxy)phenyl)-6-(4,4,4-trifluorobutyl)pyrazin-2-yl)piperidine-4-carboxylic acid], the IC50 was in the range of 500 to 2000 nM.
As to `COCCOCCCc1cnc(-c2cc(F)c3occc3c2)c(N2CCC(C(=O)O)CC2)n1` [Compound 118, 1-(3-(7-fluorobenzofuran-5-yl)-6-(3-(2-methoxyethoxy)propyl)pyrazin-2-yl)piperidine-4-carboxylic acid], the IC50 was 500 to 2000 nM.
Take `O=C(O)C1CCN(c2nc(CCC(F)(F)F)cnc2-c2ccc3c(c2)CCO3)CC1` [Compound 119, 1-(3-(2,3-dihydrobenzofuran-5-yl)-6-(3,3,3-trifluoropropyl)pyrazin-2-yl)piperidine-4-carboxylic acid]: the IC50 is less than 500 nM.
As for `O=C(O)C1CCN(c2nc(CCC(F)(F)F)cnc2-c2ccc3c(c2)OCO3)CC1` [Compound 120, 1-(3-(benzo[d][1,3]dioxol-5-yl)-6-(3,3,3-trifluoropropyl)pyrazin-2-yl)piperidine-4-carboxylic acid], the IC50 was less than 500 nM.
`O=C(O)C1CCN(c2nc(CCC(F)(F)F)cnc2-c2ccc3occc3c2)CC1` [Compound 121, 1-(3-(benzofuran-5-yl)-6-(3,3,3-trifluoropropyl)pyrazin-2-yl)piperidin-4-carboxylic acid]: the IC50 was less than 500 nM.

The assay is the same for the next values; noted with them: 60 minute assay; HEK293T cells stably expressing GLUT9B and transiently A. oryzae uricase; uric acid 0.3 mM, 37° C.; read-out: 60 min IC50.
With `O=C(O)C1CCN(c2nc(CCCOC(F)(F)F)cnc2-c2cc(F)c3occc3c2)CC1` [Compound 96, 1-(3-(7-fluorobenzofuran-5-yl)-6-(3-(trifluoromethoxy)propyl)pyrazin-2-yl)piperidine-4-carboxylic acid], the IC50 was less than 500 nM.
Regarding `O=C(O)C1CCN(c2nc(CCCC(F)(F)F)cnc2-c2ccc3c(c2)OCO3)CC1` [Compound 108, 1-(3-(benzo[d][1,3]dioxol-5-yl)-6-(4,4,4-Trifluorobutyl)Pyrazin-2-yl)piperidine-4-carboxylic acid], the IC50 is less than 500 nM.

Broadly, the IC50 is the concentration needed to halve the response being measured.
